Columns and labels:
Assay type in all cases: in vivo
[1] = tested on: Mediterranean Fruitfly (Ceratitis capitata); assay: Mediterranean fruitfly microtiter plate diet test; conditions: 120 h
Method: For evaluating control of Mediterranean fruitfly (Ceratitis capitata) the test unit consisted of microtiter plates containing an insect diet and 50-80 C. capitata eggs. The compounds were formulated using a solution containing 75% v/v water and 25% v/v DMSO. Different concentrations of formulated compounds were sprayed onto the insect diet at 5 μl, using a custom built micro atomizer, at two replications.
After application, microtiter plates were incubated at about 28±1° C. and about 80±5% relative humidity for 5 days. Egg and larval mortality was then visually assessed.

[2] = tested on: Silverleaf Whitefly (Bemisia argentifolii); assay: Silverleaf whitefly cotton plant spray test; conditions: 72 h, 3 days after treatment, in comparison with untreated controls
Source text: (§1) The active compounds were formulated in cyclohexanone as a 10,000 ppm solution supplied in tubes. The tubes were inserted into an automated electrostatic sprayer equipped with an atomizing nozzle and they served as stock solutions for which lower dilutions were made in 50% acetone:50% water (v/v). A nonionic surfactant (Kinetic®) was included in the solution at a volume of 0.01% (v/v).
Cotton plants at the cotyledon stage (one plant per pot) were sprayed by an automated electrostatic plant sprayer equipped with an atomizing spray nozzle. The plants were dried in the sprayer fume hood and then removed from the sprayer. Each pot was placed into a plastic cup and about 10 to 12 whitefly adults (approximately 3-5 days old) were introduced. The insects were collected using an aspirator and a nontoxic Tygon® tubing connected to a barrier pipette tip. The tip, containing the collected insects, was then gently inserted into the soil containing the treated plant, allowing insects to crawl out of the tip to reach the foliage for feeding. Cups were covered with a reusable screened lid. Test plants were maintained in a growth room at about 25° C. and about 20-40% relative humidity for 3 days, avoiding direct exposure to fluorescent light (24 hour photoperiod) to prevent trapping of heat inside the cup. Mortality was assessed 3 days after treatment, compared to untreated control plants.

[3] = tested on: House Fly Adults (Musca domestica); assay: House fly adults glass vial contact assay; conditions: 48 h after treatment, in comparison with untreated controls
Method: If not otherwise specified, the tests were conducted as glass vial contact assays. Glass vials (20 ml scintillation vials) were used. Treatment solutions were mixed with technical grade chemicals diluted in acetone. Treatment solutions needed for the assays included generally 1 and 10 ppm (0.01 and 0.1 μg/cm^2, respectively), but optionally also 100 and/or 1000 ppm for first tier vials. As commercial standard, alphacypermethrin, was run at 1 ppm. As solvent control, acetone was used for the assay. Treatment solution was pipetted into the bottom of each vial. Each vial was turned on its side and placed onto a commercial grade hot dog roller without applying heat. The uncapped vials were allowed to roll to allow for the acetone treatment to vent off. After drying, the vials were placed into the compartmented vial shipping boxes. The workstation was prepared by chilling the table and plastic Petri dishes with the inside wall coated with Fluon. A weigh boat of 10% sugar water saturated cotton dental pellets was also prepared. The animal pests were collected into a tube with a rechargeable insect vacuum. The tube of animal pests was placed in a laboratory refrigerator until the animal pests were incapacitated. The animal pests were emptied into chilled Petri dish. A small cotton dental pellet was soaked in water or in 10 wt % sugar water, whereas the excess solution was gently squeezed out. […]

[4] = tested on: Diamond Back Moth (Plutella xylostella); assay: Diamond back moth leaf dip test; conditions: foliar, 120 h
Method: The active compound is dissolved at the desired concentration in a mixture of 1:1 (vol:vol) distilled water:acteon. The test solution is prepared at the day of use and in general at concentrations of […].
Leaves of Chinese cabbage were dipped in test solution and air-dried. Treated leaves were placed in petri dished lined with moist filter paper. Mortality was recorded 24, 72, and 120 hours after treatment.

[5] = tested on: Southern Armyworm (Spodoptera eridania); assay: Southern armyworm lima bean foliar spray test; conditions: 96 h
Method: as §1
(§2) Lima bean plants (variety Sieva) were grown 2 plants to a pot and selected for treatment at the 1st true leaf stage. Test solutions were sprayed onto the foliage by an automated electrostatic plant sprayer equipped with an atomizing spray nozzle. The plants were dried in the sprayer fume hood and then removed from the sprayer. Each pot was placed into perforated plastic bags with a zip closure. About 10 to 11 armyworm larvae were placed into the bag and the bags zipped closed. Test plants were maintained in a growth room at about 25° C. and about 20-40% relative humidity for 4 days, avoiding direct exposure to fluorescent light (24 hour photoperiod) to prevent trapping of heat inside the bags. Mortality and reduced feeding were assessed 4 days after treatment, compared to untreated control plants.

[6] = tested on: Boll Weevil (Anthonomus grandis); assay: Boll weevil microtiter plate diet test; conditions: 120 h
Method: For evaluating control of boll weevil (Anthonomus grandis) the test unit consisted of 24-well-microtiter plates containing an insect diet and 20-30 A. grandis eggs.
The compounds were formulated using a solution containing 75% v/v water and 25% v/v DMSO. Different concentrations of formulated compounds were sprayed onto the insect diet at 20 μl, using a custom built micro atomizer, at two replications. After application, microtiter plates were incubated at about 23±1° C. and about 50±5% relative humidity for 5 days. Egg and larval mortality was then visually assessed.

[7] = tested on: Tobacco Budworm (Heliothis virescens); assay: Tobacco budworm cotton plant foliar spray test; conditions: 96 h
Method: as §1
as §2, with “Cotton” for “Lima bean”, “plants” for “plants (variety Sieva)”, “cotyledon” for “1st true leaf”, “budworm” for “armyworm”

[8] = tested on: yellowfever mosquito larvae (Aedes aegypti); assay: Larval mosquito water treatment assay; conditions: 120 h, 5 DAT (days after treatment), first tier test, in comparison with untreated controls
Method: The assay was conducted in 6-well polystyrene plates using one plate per treatment rate. Stock solutions were prepared at 100 and 1000 ppm. Screen rates were at 1 and 10 ppm. Distilled water was added to each well, control wells were treated with acetone. Temephos (Abate technical) was used as the standard at 0.1 ppm. Ten late thirdinstar yellowfever mosquito larvae (Aedes aegypti) in water were added to each well. One drop of liver powder solution (6 g in 100 ml distilled water) was added to each well as a food source daily. Plates were maintained at 22-25° C. and 25-50% RH (relative humidity) and observed daily for dead larvae and pupae at 1, 2, 3, and 5 days after treatment. Dead larvae and all pupae were removed daily. Mortality was defined as an insect incapable of coordinated movement when agitated.

[9] = tested on: Orchid Thrips (Dichromothrips corbetti); assay: Orchid thrips floral-immersion test; conditions: 96 h
Method: Dichromothrips corbetti adults used for bioassay are obtained from a colony maintained continuously under laboratory conditions. For testing purposes, the test compound is diluted to a concentration of 300 ppm (wt compound: vol diluent) in a 1:1 mixture of acetone:water (vol:vol), plus 0.01% vol/vol Kinetic® surfactant.
Thrips potency of each compound is evaluated by using a floral-immersion technique. Plastic petri dishes are used as test arenas. All petals of individual, intact orchid flowers are dipped into treatment solution and allowed to dry. Treated flowers are placed into individual petri dishes along with 10-15 adult thrips. The petri dishes are then covered with lids. All test arenas are held under continuous light and a temperature of about 28° C. for duration of the assay. After 4 days, the numbers of live thrips are counted on each flower, and along inner walls of each petri dish. The level of thrips mortality is extrapolated from pre-treatment thrips numbers.

CON=C(c1ccc(C2=NOC(c3cc(Cl)cc(Cl)c3)(C(F)(F)F)C2)cc1C)N(C)C (stereo not drawn) [Compound 1-3, 4-[5-(3,5-Dichloro-phenyl)-5-trifluoromethyl-4,5-dihydro-isoxazol-3-yl]-N′-methoxy-2,N,N-trimethyl-benzamidine]
≥ 75%: mortality at 2500 ppm [1] | mortality at 300 ppm [2] | mortality at 10 ppm [3] | mortality at 300 ppm [4] | mortality at 300 ppm [5] | mortality at 2500 ppm [6] | mortality at 2500 ppm [7] | mortality at 1 ppm [8] | mortality at 300 ppm [9]

Source: patent publication US8633134B2, “Substituted amidine compounds for combating animal pests” (priority 2008, dated 2014)
